87 compounds from a melting point compilation (Tetko et al.; mined from patent text by program, amines drawn as free bases though some values may be those of a salt) can be followed below.

Molecules are shown by their SMILES. Some results are limits rather than exact numbers.

`CC(C)(N)Cc1c[nH]c2ccc(Br)cc12` registered a melting point of 150 to 155 °C.

In the case of `CCC(C)(C)NS(=O)(=O)c1ccc(CBr)cc1`, the melting point stood at 100 °C.

`Cn1ncc2c(c1=O)SCCNC2Cc1ccccc1` (configuration not stated) showed a melting point of 108 to 109 °C.

In turn, `CC(C)Oc1cc(CCCOc2cc(CCC(=O)O)n(-c3ccccc3)n2)cc(COc2ccc(Cl)cc2Cl)c1` returned a melting point of 104 to 106 °C.

Take `CCOC(=O)c1cnc2c(OC)cccc2c1Nc1ccccc1`: the melting point was 120 to 121 °C.

In the case of `COc1ccc2c(c1)C(=O)NCC2`, the melting point was in the range of 90 to 93 °C.

Consider `Cc1cccc2sc3ccccc3c(=O)c12`, for which the melting point is 107 to 132 °C.

`CCOC(=O)c1c(S(=O)(=O)c2ccccc2)cc(C(F)(F)F)nc1C(F)(F)F` came in with a melting point of 48 to 50 °C.

As for `CCc1cc(NC(=O)c2nnnn2Cc2ccc(OC)cc2)c(O)c(C(C)=O)c1`, the melting point lay in the range of 140 to 142 °C.

The compound `CC(NC(=O)OC(C)(C)C)C(=O)NC(C)C(=O)Nc1ccc2c(Cl)c(OCCBr)oc(=O)c2c1` (configuration not stated) showed a melting point of 147 to 151 °C.

As to `N#Cc1ccc(CCCCC2CC(c3cccnc3)=CC(=O)O2)cc1` (configuration not stated), the melting point lay in the range of 110 to 112 °C.

Take `CSC(=S)N1C(CO)Cc2c([nH]c3ccccc23)C1C` (configuration not stated): the melting point is 153 to 156 °C.

As to `NNc1cc(-c2ccnc(Nc3cccc(Cl)c3)n2)ccn1`, the melting point fell in the range of 201 to 203 °C.

Consider `CN(c1cccc2cc(C3=NCC4(CCN(CC(N)=O)CC4)S3)[nH]c12)S(=O)(=O)c1cccs1`, for which the melting point was 226 °C.

In the case of `CC(C)N1C(=O)CO[C@@H]2c3cc(F)ccc3OCC[C@H]21` (relative stereo), the melting point lay in the range of 127 to 143 °C.

`C=Cc1ccc(OC(=O)c2ccccc2)cc1` yielded a melting point of 75 to 76 °C.

The compound `CCCOc1cccc(C(NC2CCN(C)CC2)c2nc3ccccc3s2)c1` (configuration not stated) came in with a melting point of 90 °C.

In the case of `CCOC(=O)c1c(C)cc2nc(CSC(C)=O)n(-c3ccccc3Cl)c(=O)c2c1C`, the melting point lay within 103 to 105 °C.

The compound `CCOC(=O)OC1=C(c2cc(C)ccc2C)C(=O)NC1CC1CCS(=NC#N)CC1` (configuration not stated) returned a melting point of 103 to 105 °C.

Regarding `CC(=O)C1C(=O)N(C(=O)Nc2ccccc2)c2ccccc21` (configuration not stated), the melting point lay within 171 to 173 °C.

Consider `Cc1csc2c(=O)n(N=Cc3ccc(Cl)cc3)cnc12`, for which the melting point fell in the range of 213 to 215 °C.

In turn, `COC1=CC=C2C3Cc4ccc(O)c5c4C2(CCN3C)C1O5` (configuration not stated) yielded a melting point of 114 to 116 °C.

`Cc1cccc(C(C)C)c1NC(=O)Nc1c(-c2ccccc2F)c2cc(Cl)ccc2oc1=O` registered a melting point of 217 to 218 °C.

Compound `COc1nc2cccc(C(=O)O)c2n1Cc1ccc(-c2ccccc2-c2nc(=O)o[nH]2)cc1` came in with a melting point of 189 to 190 °C.

On to `Nc1nc2ccccc2c2c1ncn2CC1(O)CCOCC1`, for which the melting point fell in the range of 260 to 262 °C.

As for `CNC(=O)C(N)Cc1ccc2ccccc2c1` (configuration not stated), the melting point lay in the range of 127 to 128 °C.

In the case of `O=c1cncc2ccccc2n1`, the melting point was found to be 213 °C.

The compound `CN(C)C(=O)Cc1nc(-c2ccccc2)nc2c1c1ccc(Cl)cc1n2C` registered a melting point of 185 to 187 °C.

`COC(=O)c1cc(-c2ccc(OC)c(OC)c2)nn(CC2CC2)c1=O` came in with a melting point of 136 to 137 °C.

Consider `O=C1c2cccc(NCc3ccccc3)c2C(=O)c2cccc(NCc3ccccc3)c21`, for which the melting point fell in the range of 218 to 220 °C.

Compound `COc1ccc(C(=O)c2cc(Cl)ccc2N)c(O)c1OC` showed a melting point of 112 to 115 °C.

As to `OCc1c(F)cccc1-c1ccc2nc(-c3ccc(Cl)cc3)cn2c1`, the melting point was 229 to 230 °C.

`CCOC(=O)C1Oc2ccccc2Cc2ccccc2O1` gave a melting point of 86.5 to 88.5 °C.

On to `CC1CCn2nc(S(=O)(=O)Nc3c(Cl)cccc3Cl)nc2N1` (configuration not stated), for which the melting point lay within 230 to 235 °C.

With `CC(C)N(CCCCOCC(=O)O)c1nnc(-c2ccccc2)c(-c2ccccc2)n1`, the melting point lay within 128 to 130 °C.

Compound `CCCCCOc1ccccc1C1=NNC(=O)CC1` registered a melting point of 50 to 52 °C.

Regarding `COc1cccc(N(C)C(=O)Oc2ccc(C(F)(F)F)cc2)n1`, the melting point lay in the range of 85 to 86 °C.

In turn, `Cn1ncc(C(=O)N2CCC2)c1C(=O)Nc1ccn2nc(-c3cccc(F)n3)nc2c1` yielded a melting point of 264 °C.

`CCOC(=O)c1c2ccc(Cl)cc2c(-c2ccccc2)n1CC(=O)N(CC)CC`: the melting point was 118 to 120 °C.

Regarding `CCOC(=O)c1cn(Cc2ccccc2)nc1OCc1ccc(OCc2nc(-c3ccco3)oc2C)nc1`, the melting point is 140 to 141 °C.

With `CC1(C(O)(C=Cc2ccc(Cl)cc2Cl)Cn2ccnc2)COCOC1` (configuration not stated), the melting point was in the range of 142 to 144 °C.

The compound `O=C(NCc1cccnc1)c1ccc2n1Cc1ccccc1N(C(=O)c1ccc3c(c1)Cc1ccccc1-3)C2` returned a melting point of 116 to 119 °C.

The compound `CC(=O)NCC1CN(c2ccc(N3CCN(C(=O)CCN4CCOCC4)CC3)c(F)c2)C(=O)O1` (configuration not stated) yielded a melting point of 209 to 210 °C.

For `CCOC(=O)c1c(C)nc2scnc2c1N`, the melting point lay in the range of 118 to 119 °C.

As for `CN(C)C(=O)c1cc(OCc2ccccc2)c2nc(C(F)(F)F)n(C)c2c1`, the melting point lay within 144 to 146 °C.

`CC(C)(C)OC(=O)Nc1cc(Cl)c(C#Cc2ccccc2)cc1[N+](=O)[O-]` gave a melting point of 166 to 167 °C.

For the compound `COC(=O)C=Cc1ccc2[nH]c(C)cc2c1`, the melting point lay within 172 to 173 °C.

`Cc1ccc(S(=O)(=O)N2CC[C@@H](C)[C@@H]2c2ccc(F)cc2)cc1` (racemic) had a melting point of 112 °C.

`CCCCN(C(=O)c1cnc(N2CCNC2=O)nc1N)c1cccc(C(F)(F)F)c1`: the melting point lay within 234 to 235 °C.

As to `O=C(O)[C@H](CC1CCCCC1)n1cccc1`, the melting point was 78 to 80 °C.

As to `Nc1cnc(-c2ccc(OCc3ccccc3)c(C34CC5CC(CC(C5)C3)C4)c2)nc1`, the melting point was 216 to 219 °C.

In turn, `C=C[C@H]1C(=O)N(C)[C@H](C(C)(C)C)N1C(=O)c1ccccc1` gave a melting point of 169 to 171 °C.

Compound `COc1ccc(NC(=O)c2c(Cl)cccc2Cl)c2nccc(Cl)c12` showed a melting point of 238 to 242 °C.

The compound `CN1C(=O)OC(C)(C)c2cc(-c3cc(F)cc(Br)c3)ccc21` displayed a melting point of 157 to 158 °C.

In turn, `CCc1ccccc1NS(=O)(=O)c1cc(S(=O)(=O)Nc2ccccc2CC)c2cc(O)ccc2c1` had a melting point of 127 to 129 °C.

As to `Cc1cc2oc(=O)c3c(c2cc1C)CCN(CC(C)N(C)C)C3` (configuration not stated), the melting point was 105 to 107 °C.

Compound `COC(=O)c1ccc(C(F)(F)F)cc1Sc1ccccc1` had a melting point of 55 to 60 °C.

Consider `CN(C)CCNC(=O)c1cc(-c2cccc(Cl)c2)c2cc(C(c3ccc(Cl)cc3)c3cncn3C)ccc2n1` (configuration not stated), for which the melting point came to 184 °C.

Compound `O=C1Cc2ccccc2C(c2ccccc2)CN1` (configuration not stated) showed a melting point of 154 to 155 °C.

`CC(C)(OCc1coc(-c2ccc(Cl)cc2)n1)C(=O)O` registered a melting point of 144 to 145 °C.

For the compound `CCCC(CC)c1nc(C)nc2c1c(C)c(C)n2-c1c(C)cc(C)cc1C` (configuration not stated), the melting point lay in the range of 100 to 102 °C.

Take `NC(=NO)c1ccc(NC(=O)CC(=O)N2CCC(OCC(=O)O)CC2)cc1`: the melting point lay within 133 to 135 °C.

For the compound `O=C(CCl)Nc1ccc(Sc2ccc([N+](=O)[O-])cc2)cc1`, the melting point was in the range of 217 to 219 °C.

`CC(C)OC(=O)c1cn(-c2cccnc2)cn1` came in with a melting point of 130 to 131 °C.

Take `CCOC(=O)CNC(=O)[C@H](Cc1ccc(O)cc1)NC(=O)[C@H](CO)NC(=O)[C@H](Cc1c[nH]c2ccccc12)NC(=O)[C@H](Cc1c[nH]cn1)NC(=O)[C@@H]1CCC(=O)N1`: the melting point lay in the range of 218 to 220 °C.

With `C#CCOCc1c(C)nc2c(OCc3ccccc3C#N)cccn12`, the melting point was determined as 144 °C.

As to `COc1cc2c(cc1OC)C(=O)C(=Cc1cc(Cl)cc(Cl)c1)CC2`, the melting point lay in the range of 200 to 201 °C.

In turn, `COc1ccccc1C(=O)c1ccc(OC)c(Cl)c1Cl` displayed a melting point of 94 to 96 °C.

Turning to `O=C1COC(COc2ccccc2Cc2cccs2)CN1Cc1ccccc1` (configuration not stated), the melting point lay within 97 to 99 °C.

`COC(=O)C1CN(Cc2ccccc2)c2ccccc2CN1S(=O)(=O)c1ccc(OC)cc1` (configuration not stated) yielded a melting point of 120 to 122 °C.

In the case of `CC(C)(CNC(=O)Cc1cnc[nH]1)c1ccc(C(=O)Nc2cn3cc(C(F)(F)F)ccc3n2)cc1`, the melting point lay in the range of 261 to 263 °C.

In turn, `CC(=O)Oc1cc2ccc(S(=O)(=O)Cl)cc2cc1OC(C)=O` had a melting point of 158 to 167 °C.

`C=CCN(CC=C)NC(=S)Nc1ccc(F)cc1` returned a melting point of 73 to 74 °C.

`COc1ccc2cc(-c3cncn3C)cc(C)c2n1` registered a melting point of 160 to 162 °C.

As for `Cc1cccc(CC(=O)N[C@H]2C[C@H](C(=O)O)Nc3cc(Cl)cc(Cl)c32)c1` (relative stereo), the melting point fell in the range of 169 to 171 °C.

Take `CCCc1nc2ccc(OC(F)(F)F)cc2[nH]1`: the melting point lay in the range of 88 to 90 °C.

In the case of `N[C@@H](CC(=O)c1ccc2oc3ccccc3c2c1)C(=O)O`, the melting point was in the range of 182 to 187 °C.

`Cc1ccc2c(c1)[C@H]1Cc3ccccc3[C@H]1N2` (relative stereo) had a melting point of 110 °C.

As to `CCC(C)Nc1c(C(F)(F)F)cc([N+](=O)[O-])c(Cl)c1[N+](=O)[O-]` (configuration not stated), the melting point fell in the range of 90.5 to 91.5 °C.

With `CCCC[C@H](NC(=O)C(CS)C(F)(F)F)C(=O)O` (some centres not stated), the melting point was 96 to 98 °C.

Turning to `COc1ccc(C(=O)[C@H]2CC=CC[C@H]2C(=O)O)cc1Br` (relative stereo), the melting point lay in the range of 201 to 204 °C.

`CN(C)C(=O)N[C@H]1CC[C@H](CCN2CCC(c3cccc4c3CCO4)CC2)CC1` had a melting point of 260 °C.

For `CC1(c2ccccc2)Nc2ccc3c(c2N1)C(=O)c1ccccc1C3=O` (configuration not stated), the melting point was 368 to 371 °C.

The compound `OCCCc1cc(Cl)cc2nc(Cc3cccc(Cl)c3)oc12` showed a melting point of 87 to 89 °C.

For the compound `Cc1ccccc1NC(=O)NCc1cccc2c1C(=O)N(C1CCC(=O)NC1=O)C2=O` (configuration not stated), the melting point is over 260 °C.

With `Nc1cc(C(F)(F)F)cnc1Cl`, the melting point was in the range of 94 to 95 °C.

As for `COC(=O)c1cc(OC)c(C(=O)O)cc1OC`, the melting point lay in the range of 123 to 124 °C.
